Measurements: US5498624A, “Selected pyrazolyl derivatives” (Monsanto Company, priority 1995, dated 1996)

Experiments:
[1] = tested on: Erysiphe graminis f. sp. hordei; experiment: Barley Powdery Mildew Foliar Assay (BPM Prot); format: in vivo; details: inoculation 24 hours after application
Experimental: A) Pathogen/Inoculum Production--Leaf material infected with the barley powdery mildew fungus, Erysiphe graminis f. sp. hordei, is maintained continuously on barley seedlings, cv. Perry.
B) Host Propagation--Barley seedlings, cv. Perry, are grown to second leaf stage in a commercial soil preparation, "Metro Mix 200", amended with 100 gm/ft^3 slow release "Osmocote 14-14-14". A sufficient number of seeds are planted per pot (5 cm in diameter) in order to insure the production of 3-5 vigorous seedlings per pot. The plants are maintained in a growth chamber set at 21° C., 80% RH with a 12 hour photoperiod. Light intensity is set at 300 me/m^2/ sec.
C) Test Compound Preparation
1) Experimental compounds--Each or the compounds of the present invention are applied at 500, 100, and 20 ppm. Formulation is generally in […], 59.95% water, and 0.05% Tween 20. Four pots (with 3-5 plants/pot) at each rate are treated. The application volume is 8 ml per treatment. Formulated materials, such as commercially available products, are brought up to the appropriate treatment volume with water containing Tween®20,05% v/v.
2) Controls and standards--The commercial standards used are Corbel® (active ingredient fenpropimorph) and NUSTAR® (active ingredient flusilazole), both at the rate of 20 and/or 10 ppm. A set of control plants, treated with the formulation blank and inoculated, are also included.
D) Compound Application--Compound is sprayed onto the leaves of the plants (pots positioned on a rotating table) using a DeVilbiss Model 152 hand sprayer. Coverage of the first leaf is essential. After the plants have thoroughly dried they are returned to the growth room and randomized.
E) Inoculation/Incubation--Inoculation of the test plants takes place 24 hours after compound application. Inoculation is accomplished by gently shaking plants previously infected with the Erysiphe graminis f. sp. hordeii fungus over the test plants. This process liberates a cloud of spores which effectively and uniformly fall onto the test plants. After inoculation the plants are returned to the environmental conditions under which they were grown.
F) Evaluation--The test is assessed 6-7 days after inoculation. Treatments are evaluated by visually estimating the percentage of the leaf area infected on the first leaf. Three ratings are made on each pot (replicate). Phytotoxicity and growth effects are also noted at this time.
G) Data--All replicate data is recorded as a percent disease value. Treatment means are calculated and percent disease control is determined by the formula: (control mean--treatment mean)*100/control mean. The inoculated control treatment mean is used for this calculation. The percent protection values for the compounds of the present invention are as set out in the Table below.

Botrytis cinerea = experiment: Vine Grey Mold on Berries (VGM Prot); format: in vivo; details: grape berries, inoculated 24 hours after treatment
Experimental: A) Pathogen/Inoculum Production--The grey mold fungus, Botrytis cinerea, is cultured on PDA at 20° C. and 12 hours fluorescent light until the radial growth is slightly less than the plate diameter. A 1×10^6spore/ml suspension in sterile water (0.05% Tween®20) is made by dislodging spores in a flooded plate, filtering out mycelium, and adjusting the concentration.
B) Host Preparation--Thompson or Red Flame seedless table grapes from local grocery stores are used. Grapes are washed first in room temperature soapy water solution (a few drops of detergent per gallon), and then surfaced sterilized in 70% ethanol for one minute, followed by two rinses in sterile water. Berries are chosen which still have stem (pedicel) attached.
1) Experimental compounds--Each of the compounds of the present invention are applied at 200, 50, and 20 ppm. Formulation is generally in 40% acetone, 59.95% water, and 0.05% Tween®20. Replication is 6 berries per treatment. Compound is pipetted onto berries at 1.0 ml/treatment (6 berries) in a sterile petri plate. After drying, each berry is transferred to an individual well in a 12-well tissue culture plate. Formulated materials, such as commercial preparations are generally applied using the formulation only (no acetone or surfactant added).
2) Controls and Standards--Three technical grade commercial standards are used, usually at 200 and 50 ppm; benomyl, iprodione, and vinclozolin. The test controls include a uninoculated, formulation treated set as well as an inoculated, formulation treated set.
D) Inoculation/Incubation--Each berry is inoculated with 0.2 ml of spore suspension, using a sterile pipet. Incubation is in the 12-well culture plates at 20° C., 12 hour photoperiod.
E) Test Execution--One day protectant--Berries are inoculated as described 24 hours after chemical treatment.
F) Evaluation--The test is rated 7-10 days after inoculation. Percent surface area infected with disease is determined for each replicate using the values of 0, 1, 2, 5, 10, 15, 20, 25, etc. through 100%. Treatment means are calculated and percent disease control is determined by the formula "(control mean--treatment mean)*100/control mean". The untreated/inoculated control treatment is used for this calculation. The resultant percent protection or percent disease control values for the compounds of the present invention are as set out in the Table below.

Row | Compound | BPM Prot percent disease control ([1]; 20 ppm foliar) | BPM Prot percent disease control ([1]; 100 ppm foliar) | BPM Prot percent disease control ([1]; 500 ppm foliar) | VGM Prot percent disease control (Botrytis cinerea; 20 ppm, * = averaged value) | VGM Prot percent disease control (Botrytis cinerea; 50 ppm, * = averaged value) | VGM Prot percent disease control (Botrytis cinerea; 200 ppm)
1 | C[C@@H]1CCC[C@H](c2ccccc2NC(=O)c2cn(C)nc2C(F)F)C1 (relative stereo) [Number 2, 1H-pyrazole-4-carboxamide, 3-(difluoromethyl)-1-methyl-N-[2-(-3-methylcyclohexyl)phenyl]-, cis-] | 90% | 96% | 85% | 90% | 93% | 99%
2 | C[C@H]1CCC[C@H](c2ccccc2NC(=O)c2cn(C)nc2C(F)F)C1 (relative stereo) [Number 3, 1H-pyrazole-4-carboxamide, 3-(difluoromethyl)-1-methyl-N-[2-(3-methylcyclohexyl)phenyl]-, trans-] | 98% | 98% |  | 67% | 87% | 
3 | CC[C@H]1CC[C@@H](c2ccccc2NC(=O)c2cn(C)nc2C(F)F)CC1 [Number 1, 1H-pyrazole-4-carboxamide, 3-(difluoromethyl)-N-[2-(4-ethylcyclohexyl)phenyl]-1-methyl-, cis-] |  |  | 88% |  | 93% | 99%
4 | Cn1cc(C(=O)Nc2ccccc2[C@H]2CC[C@H](C)CC2)c(C(F)(F)F)n1 [Number 4, 1H-pyrazole-4-carboxamide, 1-methyl-N-[2-(4-methylcyclohexyl)phenyl]-3-(trifluoromethyl)-, trans-] |  |  |  | 41% | 67% | 
